Results: patent US20220267310A1, “QUINAZOLINE AND CINNOLINE DERIVATIVES AS DNA-PK INHIBITOR” (MEDSHINE DISCOVERY INC., priority 2019, published 2022)
Where “and” joins values, the source holds several entries; their conditions need not be identical. Identical values can stand only once.

What was measured:
[1] = molecular target: T1, PI3K (p110β/p85α) (Homo sapiens, UniProt P42338); assay: PI3K (p110β/p85α) kinase inhibitory activity (HTRF); assay type: biochemical
T1 construct: Eurofins Pharma Discovery Service (contract assay)
Protocol: This experiment was tested at Eurofins Pharma Discovery Service, Reaction Biology Corp. (RBC)
[…] DNA-PK: Mg/ATP; GST-cMyc-p53; EDTA; Ser15 antibody; ATP: 10 μM; biotinylated phosphatidylinositol-3,4,5-triphosphate; GST label GRP1 PH domain; streptavidin and phycocyanin; europium-labelled monoclonal antibody against GST.
PI3K (p110β/p85α) was incubated in a determination buffer containing phosphatidylinositol 4,5-diphosphate and Mg/ATP (density as required). The reaction was initiated by adding a mixture of Mg/ATP. After incubating at room temperature for 30 min, a termination solution containing EDTA and biotinylated phosphatidylinositol-3,4, 5-triphosphate was added to terminate the reaction. Finally, a detection buffer (containing labeled anti-GST monoclonal antibody, PH domain of GRP1 with GST label and streptavidin and phycyanin and […]) was added. Then, the board was read in time-resolved fluorescence mode, and an HTRF signal was measured according to the formula HTRF=10000×(Em665 nm/Em620 nm).

[2] = system: human small cell lung cancer NCI-H69 cell subcutaneous xenograft tumor; assay: NCI-H69 subcutaneous xenograft, combination with etoposide, 22-day experiment (Table 7); assay type: in vivo, BALB/c nude mice; conditions: for T/C (%) / TGI (%): 22nd day; for Tumor volume (mm^3) (0th day) / Tumor volume (mm^3) (22th day): average ± SEM
Protocol: (§1) Experiment example 3: in vivo pharmacodynamics of human small cell lung cancer NCI-H69 cell subcutaneous xenograft tumor BALB/c nude mouse model:
(§2) Experimental animals: Female BALB/c nude mice, 6-8 weeks old, weighing 15-22 grams; supplier: Shanghai Linchang Biotechnology Co., LTD. (Linchang, Shanghai)
(§3) Human small cell lung cancer NCI-H69 cells (ATCC, item number: HTB-119 and ECACC-95111733) were cultured in vitro in a culture condition of RPMI-1640 medium with 10% fetal bovine serum, 100 U/mL penicillin and 100 μg/mL streptomycin, incubated at 37° C. and 5% CO2. Conventional passage was carried out twice a week. When cell saturation was 80%-90% and the number reaches the requirement, cells were collected, counted and inoculated.
(§4) 0.2 mL (10×10^6) NCI-H69 cells (with matrix glue, and volume ratio of 1:1) were subcutaneously inoculated into a right back of each mouse, and group administration was initiated when the average tumor volume reaches about 110-120 mm^3.
(§5) The tested compound was prepared as a 5 mg/mL clarified solution with 10% DMSO+50% polyethylene glycol 400+40% water as the solvent.
(§6) The experimental indicators refers to study whether tumor growth was inhibited, delayed, or cured. Tumor diameter was measured twice a week with a vernier caliper. The calculation formula of the tumor volume was V=0.5a×b^2, and a and b represent the long diameter and short diameter of the tumor, respectively.
(§7) The antitumor efficacy of the compound was evaluated by TGI (%) or relative tumor proliferation rate T/C (%). TGI (%) reflects the tumor growth inhibition rate. The calculation of TGI (%): TGI (%)=[1−(average tumor volume at the end of administration of a certain treatment group−average tumor volume at the beginning of administration of the treatment group)/(average tumor volume at the end of treatment in solvent control group−average tumor volume at the beginning of treatment in solvent control group)]×control group.
(§8) Relative tumor proliferation rate T/C (%): the calculation formula was as follows: T/C %=[…] TRTV/CRTV group (TRTV: treatment group RTV; CRTV: negative control group RTV). According to results of tumor measurement, Relative Tumor Volume (RTV) was calculated by the formula RTV=Vt/V0, where V0 was the average tumor volume measured in group administration (i.e., d0), and Vt was the average tumor volume measured in a certain single measurement. TRTV and CRTV collect data on the same day.
(§9) Statistic analysis includes an average value and a standard error (SEM) of tumor volume at each time point for each group. […] If there was no significant difference in F value, Dunnet (2-sided) method was applied to analysis. All data were analyzed using SPSS 17.0. P<0.05 was considered as having a significant difference.

[3] = system: human small cell lung cancer NCI-H69 xenograft tumor model; assay: NCI-H69 xenograft, mono and combination with etoposide, 24-day experiment (Table 8); assay type: in vivo, BALB/c nude mice; conditions: for Tumor volume (mm^3) (0th day) / Tumor volume (mm^3) (24th day): average ± SEM, n = 9
Protocol: as §1, §2, §3, §4, §5, §6, §7, §8, §9

[4] = 40 mg/kg group (+ etoposide 10 mg/kg, IP)
[5] = 40 mg/kg, PO, QD + etoposide 10 mg/kg, IP, 3-day administration, 4-day withdrawal
[6] = second Embodiment 19 group of Table 7, 40 mg/kg, PO, QD + etoposide 10 mg/kg, IP
[7] = 10 mg/kg, BID + etoposide 10 mg/kg, IP
[8] = 20 mg/kg, QD + etoposide 10 mg/kg, IP
[9] = 40 mg/kg, PO, BID + etoposide 10 mg/kg, IP
[10] = 40 mg/kg, PO, QD + etoposide 10 mg/kg, IP

T1 sequence (P42338 whole entry, species assumed): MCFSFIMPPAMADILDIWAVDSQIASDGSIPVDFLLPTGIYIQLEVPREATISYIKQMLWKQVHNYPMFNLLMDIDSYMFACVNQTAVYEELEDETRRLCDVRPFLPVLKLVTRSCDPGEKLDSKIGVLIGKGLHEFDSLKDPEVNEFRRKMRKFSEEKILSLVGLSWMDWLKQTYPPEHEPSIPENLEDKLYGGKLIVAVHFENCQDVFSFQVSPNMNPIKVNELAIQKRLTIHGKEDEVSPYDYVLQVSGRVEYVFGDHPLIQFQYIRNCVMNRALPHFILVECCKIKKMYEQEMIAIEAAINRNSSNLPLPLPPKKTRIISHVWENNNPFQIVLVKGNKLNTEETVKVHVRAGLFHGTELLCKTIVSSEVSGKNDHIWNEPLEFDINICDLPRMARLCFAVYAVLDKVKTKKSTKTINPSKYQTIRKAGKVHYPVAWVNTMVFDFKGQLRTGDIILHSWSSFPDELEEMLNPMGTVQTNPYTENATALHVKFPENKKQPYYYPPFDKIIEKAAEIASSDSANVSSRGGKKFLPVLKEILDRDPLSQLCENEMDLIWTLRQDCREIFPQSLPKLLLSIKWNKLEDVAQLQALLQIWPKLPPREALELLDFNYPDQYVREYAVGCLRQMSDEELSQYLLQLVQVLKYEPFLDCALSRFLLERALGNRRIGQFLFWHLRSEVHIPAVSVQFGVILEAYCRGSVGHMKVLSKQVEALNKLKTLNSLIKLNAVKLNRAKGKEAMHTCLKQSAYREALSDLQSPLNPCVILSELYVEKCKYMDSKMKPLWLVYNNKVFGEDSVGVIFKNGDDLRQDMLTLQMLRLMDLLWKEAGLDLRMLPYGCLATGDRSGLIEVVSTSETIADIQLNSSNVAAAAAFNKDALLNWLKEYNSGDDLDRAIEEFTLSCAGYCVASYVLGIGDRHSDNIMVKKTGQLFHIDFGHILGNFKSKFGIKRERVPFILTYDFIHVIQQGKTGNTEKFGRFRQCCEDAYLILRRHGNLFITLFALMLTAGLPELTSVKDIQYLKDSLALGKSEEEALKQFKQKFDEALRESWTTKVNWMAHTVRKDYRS
T1 sequence (P27986 whole entry partner, species assumed): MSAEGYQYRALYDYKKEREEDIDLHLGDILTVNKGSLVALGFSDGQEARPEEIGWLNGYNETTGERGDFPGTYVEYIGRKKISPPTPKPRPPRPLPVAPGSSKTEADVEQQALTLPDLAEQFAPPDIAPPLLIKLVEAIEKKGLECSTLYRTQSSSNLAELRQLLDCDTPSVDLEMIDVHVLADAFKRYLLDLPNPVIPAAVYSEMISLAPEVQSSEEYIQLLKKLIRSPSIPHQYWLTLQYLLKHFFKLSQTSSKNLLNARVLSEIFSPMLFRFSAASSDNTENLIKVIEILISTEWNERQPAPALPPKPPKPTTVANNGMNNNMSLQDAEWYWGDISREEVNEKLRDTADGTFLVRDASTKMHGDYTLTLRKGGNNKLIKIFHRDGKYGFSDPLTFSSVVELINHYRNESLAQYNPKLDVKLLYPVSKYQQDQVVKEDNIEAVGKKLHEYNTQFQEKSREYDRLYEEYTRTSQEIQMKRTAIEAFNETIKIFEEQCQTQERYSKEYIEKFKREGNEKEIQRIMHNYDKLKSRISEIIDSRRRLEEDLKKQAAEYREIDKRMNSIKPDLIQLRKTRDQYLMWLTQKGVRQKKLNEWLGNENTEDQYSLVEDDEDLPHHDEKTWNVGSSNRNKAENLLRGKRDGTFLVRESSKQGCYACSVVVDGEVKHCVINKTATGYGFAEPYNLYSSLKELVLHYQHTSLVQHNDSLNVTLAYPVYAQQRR

For COc1ccc(C(O)c2cc(-c3cnnc4c(F)c(N5CCOCC5)cc(F)c34)c(F)cc2Cl)nn1 (single isomer, unassigned) [Embodiment 19], the IC50 [1] was 345 nM, the Weight changes [2, 4] was −5.88% and the “RTV (22th day)” value [2, 5] was 3.73. The “T/C (%)” value [2, 5] was 43.34%, the “TGI (%)” value [2, 5] was 64% and 63.98% and the “Tumor volume (mm^3) (0th day)” value [2, 5] was 119 ± 12 mm^3. The “Tumor volume (mm^3) (22th day)” value [2, 5] was 444 ± 34 mm^3, the Weight changes ([2]; 80 mg/kg group (+ etoposide 10 mg/kg, IP)) was 0.13% and the TGI ([2]; 80 mg/kg, PO, QD + etoposide 10 mg/kg, IP, 3-day administration, 4-day withdrawal) was 80%. The “RTV (22th day)” value [2, 6] was 2.51, the “Tumor volume (mm^3) (0th day)” value ([2]; second Embodiment 19 group of Table 7, 40 mg/kg, PO, QD + etoposide 10 mg/kg, IP, 3-day administration, 4-day withdrawal) was 119 ± 12 mm^3 and the “T/C (%)” value [2, 6] was 29.20%. For the same molecule, the “TGI (%)” value [2, 6] was 80.09%, the “Tumor volume (mm^3) (22th day)” value [2, 6] was 299 ± 31 mm^3 and the “RTV (24th day)” value [3, 7] was 4.93 ± 0.42. The “T/C (%) (24th day)” value [3, 7] was 61.2%, the “TGI (%) (24th day)” value [3, 7] was 46.5% and the “Tumor volume (mm^3) (0th day)” value ([3]; 10 mg/kg, BID + etoposide 10 mg/kg, IP, 3-day administration, 4-day withdrawal) was 114 ± 9 mm^3. The “Tumor volume (mm^3) (24th day)” value [3, 7] was 548 ± 44 mm^3, the “RTV (24th day)” value [3, 8] was 4.08 ± 032 and the “T/C (%) (24th day)” value [3, 8] was 50.6%. For the same molecule, the “TGI (%) (24th day)” value [3, 8] was 56.8%, the “Tumor volume (mm^3) (0th day)” value ([3]; 20 mg/kg, QD + etoposide 10 mg/kg, IP, 3-day administration, 4-day withdrawal) was 114 ± 7 mm^3 and the “Tumor volume (mm^3) (24th day)” value [3, 8] was 464 ± 41 mm^3. For the same molecule, the “RTV (24th day)” value ([3]; 40 mg/kg, BID, alone) was 6.91 ± 0.18, the “T/C (%) (24th day)” value ([3]; 40 mg/kg, BID, alone) was 85.8% and the “TGI (%) (24th day)” value ([3]; 40 mg/kg, BID, alone) was 16.8%. The “Tumor volume (mm^3) (0th day)” value ([3]; 40 mg/kg, BID, alone) was 114 ± 7 mm^3, the “Tumor volume (mm^3) (24th day)” value ([3]; 40 mg/kg, BID, alone) was 789 ± 49 mm^3 and the “RTV (24th day)” value [3, 9] was 2.28 ± 0.26. For the same molecule, the “T/C (%) (24th day)” value [3, 9] was 28.4%, the “TGI (%) (24th day)” value [3, 9] was 81.5% and the “Tumor volume (mm^3) (0th day)” value ([3]; 40 mg/kg, PO, BID + etoposide 10 mg/kg, IP, 3-day administration, 4-day withdrawal) was 114 ± 10 mm^3. For the same molecule, the “Tumor volume (mm^3) (24th day)” value [3, 9] was 264 ± 37 mm^3, the “RTV (24th day)” value [3, 10] was 3.11 ± 0.18 and the “T/C (%) (24th day)” value [3, 10] was 38.6%. For the same molecule, the “TGI (%) (24th day)” value [3, 10] was 70.5%, the “Tumor volume (mm^3) (0th day)” value [3, 5] was 114 ± 7 mm^3 and the “Tumor volume (mm^3) (24th day)” value [3, 10] was 353 ± 33 mm^3.

In the case of COc1ccc([C@@H](O)c2cc(-c3nncc4cc(N5CCOCC5)ccc34)c(F)cc2Cl)nn1 [Embodiment M3814, reference compound], the IC50 [1] is reported as 33 nM, the Weight changes [2, 4] is reported as −16.00% and the “RTV (22th day)” value [2, 5] is reported as 2.96. The “T/C (%)” value [2, 5] was 34.40%, the “TGI (%)” value [2, 5] was 74% and 74.21% and the “Tumor volume (mm^3) (0th day)” value [2, 5] was 119 ± 13 mm^3. The “Tumor volume (mm^3) (22th day)” value [2, 5] was 352 ± 26 mm^3, the “RTV (24th day)” value [3, 10] was 3.47 ± 0.24 and the “T/C (%) (24th day)” value [3, 10] was 43.1%. For the same molecule, the “TGI (%) (24th day)” value [3, 10] was 66.1%, the “Tumor volume (mm^3) (0th day)” value [3, 5] was 114 ± 8 mm^3 and the “Tumor volume (mm^3) (24th day)” value [3, 10] was 389 ± 28 mm^3. The “RTV (24th day)” value ([3]; 40 mg/kg, QD, alone) was 6.77 + 0.45, the “T/C (%) (24th day)” value ([3]; 40 mg/kg, QD, alone) was 84.1% and the “TGI (%) (24th day)” value ([3]; 40 mg/kg, QD, alone) was 19.8%. For the same molecule, the “Tumor volume (mm^3) (0th day)” value ([3]; 40 mg/kg, QD, alone) was 114 ± 8 mm^3 and the “Tumor volume (mm^3) (24th day)” value ([3]; 40 mg/kg, QD, alone) was 764 ± 59 mm^3.
